Measured values taken from US6908934B2, “Therapeutic compounds for treating dyslipidemic conditions” (Merck & Co., Inc., priority 2001, dated 2005).

Test system: ABCA1 mRNA
Experiment: cells
Assay type: cell-based
Settings: Primary macrophage, human primary macrophages, 18 h + 6 h treatment, vs DMSO control, read-out: Fold Induction of ABCA1 mRNA (Mean ± SEM)
Description: Induction of ABCA1 mRNA Levels
Human Primary Macrophages were used to test the ability of LXR ligands to induce the expression of ABCA1 mRNA. The collection and purification of monocytes and their subsequent differentiation into macrophages by culturing in Teflon jars for 7-9 days was performed according to Wright and Silverstein J. Exp. Med. V156, October 1982 pp 1149-1164. Cells were harvested from the Teflon jars and seeded into appropriate vessels in RPMI1640 plus 12% human serum and antibiotics. Cells were allowed to recover overnight before treatment. Treatment was for 18 hours with the described compounds, followed by a re-application of fresh compounds for an additional 6 hours in DMEM minus Phenol Red with 10% charcoal stripped FCS. The cells were harvested and total RNA prepared using the phenol/guanidine isothiocyanate method as supplied and described by Molecular Research Center, Inc. (TRI REAGENT® Cat. No. TR 118). ABCA1 mRNA levels in the total RNA were measured using the TaqMan® mRNA quantitation system, following protocols published by the manufacturer (Perkin-Elmer). The oligonucleotide PCR primers used to detect ABCA1 were:
The oligonucleotide probe used was:
6FAM-[…]-TAMRA ABCA1 mRNA levels in each sample were normalized to the mRNA levels for the 23 kDa highly basic protein. The oligonucleotide PCR primers used to detect the 23 kDa highly basic protein were: […]

CC(C)CC[C@@H](O)[C@@H](C)[C@H]1CC[C@H]2[C@@H]3CC=C4C[C@@H](O)CC[C@]4(C)[C@H]3CC[C@]12C [22-(R)-hydroxycholesterol]
fold induction at 10 µM: 8 ± 1.37
